Columns and labels:
[1] = system: MM.1R myeloma cells in NSG mice; test: GSI activity in disseminated MM.1R xenograft model (surface BCMA, serum sBCMA); format: in vivo, mouse
Procedure: (A) Experimental scheme for a disseminated xenograft murine myeloma model. NSG mice were irradiated (275 rad) to facilitate tumor engraftment and received human MM tumor cells (5×10^6 MM.1R) followed by GSI treatment (30 mg/kg). […] (B) Fold change in surface BCMA expression on myeloma cells in mice euthanized at the indicated timepoints following the second GSI administration. (C) Levels of sBCMA in sera from mouse sacrificed at the indicated timepoints after administration of RO4929097. To investigate whether the sBCMA-inhibiting effects of GSI RO4929097 described in Example 4 could be replicated in vivo, a mouse xenograft model of human MM was tested as illustrated in FIG. 6A. Briefly, immunodeficient NOD/SCID gamma (NSG) mice (The Jackson Laboratory) received sublethal irradiation (275 rad) at day −1, followed by 5×10^6 MM.1R cells the next day (day 0). GSI RO4929097 (30 mg/kg) was administered by oral gavage at day 19 and day 20. Mice were sacrificed at different times after the second gavage administration of the GSI and blood and bone marrow samples were taken for analysis. GSI dosing was followed by a rapid increase (>3-fold by 4 hours post-second gavage) in surface BCMA expression on the tumor cells (FIG. 6B) and a concurrent decrease in sBCMA (FIG. 6C).

[2] = system: myeloma cell lines (8226, U266B1, MM1.R, H929); test: Surface BCMA expression on myeloma cell lines incubated with GSI, flow cytometry; format: cell-based, human
Procedure: (A) Cell surface BCMA was measured on four myeloma cell lines (8226, U266B1, MM1.R, H929) by flow cytometry with an anti-BCMA monoclonal antibody before, and 5 hours after (see diagrams), incubation of the myeloma cell lines with GSI RO4929097 in a range of concentrations from 0 μM (DMSO control) to 1.0 μM. (E) U266 myeloma cells were incubated for 1, 3, 5 and 24 hours in the presence of various concentrations of GSI RO429097 (0.01 μM, 0.1 μM and 1.0 μM) and evaluated for surface BCMA expression by flow cytometry. […] (F) Fold change of surface BCMA expression on cell lines (MM1R=triangle; U266=square; 8226=circle) cultured in 1 μM GSI over time. GSI was re-administered as a half media change every 2 days. Fold change in BCMA is defined as Treated (MFIBCMA-MFIiso)/Control (MFIBCMA-MFIiso). Data is representative of at least 2 independent experiments. To examine the effect of γ-secretase inhibition on BCMA levels on myeloma cells, γ-secretase inhibitor (GSI) RO4929097 was used. […] To examine the effect of GSI on surface BCMA expression kinetics, U266 myeloma cells were incubated for 1, 3, 5 and 24 hours in the presence of various concentrations of GSI RO429097 (0.01 μM, 0.1 μM and 1.0 μM) and evaluated for cell surface BCMA expression by flow cytometry. […] The upregulation persisted over 7 days of culture in 1.0 μM GSI (FIG. 3F). Next, the effect of removing GSI from MM cell culture was examined. […] Finally, the viability of the tested MM cell lines was not affected by addition of 1.0 μM RO429097 to culture (FIG. 3L).

## CC(C)(C(=O)NCC(F)(F)C(F)(F)F)C(=O)N[C@@H]1C(=O)Nc2ccccc2-c2ccccc21 [RO4929097]
[1]; 30 mg/kg oral gavage
  time after second gavage within which observed effects were generally reduced: ≤ 48 h
[1]; 30 mg/kg oral gavage day 19 and 20
  sBCMA in sera: decrease
[1]; 30 mg/kg oral gavage day 19 and 20, 4 hours post-second gavage
  increase in surface BCMA expression on tumor cells: > 3 fold
[2]; 1.0 μM GSI, GSI re-administered every 2 days
  persistence of surface BCMA upregulation in culture: ≥ 7 days
[2]; GSI 0.001 μM to 1.0 μM
  surface BCMA on myeloma cell lines: rapidly upregulated
[2]; U266, 0.01-1.0 μM GSI
  time of peak increase in surface BCMA expression: 5 h
[2]; U266, 1, 3, 5 and 24 hours, 0.01, 0.1 and 1.0 μM
  cell surface BCMA expression on U266 cells: increased in a dose-dependent manner
[2]; after removal of 1.0 μM GSI
  surface BCMA levels following removal of GSI: decreased

From patent publication US11845803B2, “Combination therapies for treatment of BCMA-related cancers and autoimmune disorders” (Fred Hutchinson Cancer Center, priority 2017, dated 2023)
